In patent US20220241310A1, “THIARABINE- AND THIARABINE PRODRUG-BASED TREATMENTS” (Southern Research Institute, priority 2019, published 2022):

Legend:
[1] = system: MC38^hPDL-1 colon tumor cells; assay: MC38^hPDL-1 tumor response to mono- and combination-therapy in mice; assay type: in vivo, C57BL/6^hPD-1/hPD-L1 mice; settings: combination with Keytruda; subcutaneous MC38^hPDL-1 tumor; FIG. 1A/1B
Protocol: A total of 32 C57BL/6^hPD-1/hPD-L1 mice, male and female, were injected subcutaneously with five hundred thousand (5×10^5) MC38^hPDL-1 colon tumor cells in the right flank at a volume of 0.1 mL. Innoculation day was marked as Day 0. Tumor measurements were taken biweekly for the duration of the study. Tumor weights (mg) were calculated using the equation for an ellipsoid sphere: (l×w^2)/2=mm^3, where l and w refer to the larger and smaller dimensions collected at each measurement and assuming unit density (1 mm^3=1 mg). Target tumor weight for initiation of treatment was approximately 75 to 144 mg for a target group mean tumor weight of approximately 110 mg. The animals on study were randomly assigned to four groups to contain two males and six females. Dosing began on day 13 of the study. Re-challenge of MC38^1-1 in the opposite flank of tumor-free mice from the Keytruda and combination groups occurred on day 31 of the study and mice were monitored for tumor growth for the duration of the study.
Thiarabine: The 500 mg vial was reconstituted with 4.6 mL of saline (0.9% Sodium chloride) to yield a 100 mg/mL stock solution. Each day of dosing, the 100 mg/mL solution was diluted to […] with saline. The dose concentration was 10 mL/kg with a dose volume of 0.1 mL for dose of 30 mg/kg. Mice were dosed IP Q2Dx10. […]

OVCAR-3 = assay: IC50 in OVCAR-3 tumor cell model; assay type: cell-based; settings: human ovarian cancer model
Excerpt: (§1) Representative IC50 values of thiarabine and related prodrugs tested in two tumor cell models, a humanized murine colorectal model MC38^hPDL-1 and a human ovarian cancer model OVCAR-3, are shown in Table 1 below.

MC38^hPDL-1 = assay: IC50 in MC38^hPDL-1 tumor cell model; assay type: cell-based; settings: Mus musculus, MC38-hPD-L1; humanized murine colorectal model; read-out: MC38^huPD=L1 (IC50 μM)
Excerpt: as §1

SMILES | tumor volume over time [1] | IC50 (OVCAR-3) | IC50 (MC38^hPDL-1)
CC(C)OC(=O)[C@H](C)NP(=O)(OC[C@H]1S[C@@H](n2ccc(N)nc2=O)[C@@H](O)[C@@H]1O)Oc1ccccc1 (single isomer, unassigned) [SRI-41302] | total tumor regression | 1.25 µM | 15.8 µM
CCC(CC)COC(=O)[C@H](C)NP(=O)(OC[C@H]1S[C@@H](n2ccc(N)nc2=O)[C@@H](O)[C@@H]1O)Oc1ccccc1 (stereo partly drawn) [SRI-44340, ethylbutyl ((((2R,3S,4S,5R)-5-(4-amino-2-oxopyrimidin-1(2H)-yl)-3,4-dihydroxytetrahydrothiophen-2-yl)methoxy)(phenoxy)phosphoryl)-1-alaninate] | – | 0.65 µM | –
Nc1ccn([C@@H]2S[C@H](CO)[C@@H](O)[C@@H]2O)c(=O)n1 [Thiarabine] | total tumor regression | 1.13 µM | 2.71 µM
